# From patent publication US12521398B2, “Composition for treating synucleinopathies” (STANDIGM INC., priority 2019, dated 2026)
# Read-outs that look alike come from different tables or passages of the source.
# Legend:
# Format in all cases: cell-based
# α-synuclein = molecular target: T1, α-synuclein (Homo sapiens, UniProt P37840); experiment: Dual chamber assay, cell-to-cell transmission of α-synuclein in SH-SY5Y cells; details: 12 hours
# T1 construct: expressed in transfected cells; host or cells: SH-SY5Y
# Description: A slide glass was included in the plate to stain the cells after the cell culture.
# In an insert well of the 12-well plate as the apical chamber, an SH-SY5Y cell line in which α-synuclein was over-expressed was seeded at a density of 4×10^4 cells/well, and in the 12-well plate as the basal chamber, an SH-SY5Y cell line in which α-synuclein was not over-expressed was seeded at a density of 4×10^4 cells/well and they were incubated at a constant temperature. The next day, the insert well was transferred to a place where the 12-well plate was placed to form a dual chamber. Thereafter, the chamber was treated with DMSO or 5 μM efavirenz and incubated at a constant temperature for 12 hours. The SH-SY5Y cells in the plate in which the chamber was treated with DMSO were used as the control. Then, the SH-SY5Y cells in the plate were subjected to immunostaining and observed using a confocal microscope. During the immunostaining, α-synuclein was stained red, and the nuclei were stained blue. Also, fluorescence intensities of α-synuclein in the control and the cells treated with efavirenz were compared. A scale bar represents 20 μm. **P<0.01, ***P<0.001 against the control. […] Also, when the fluorescence intensities of the immunostained α-synuclein were compared, the fluorescence intensity in the cells treated with efavirenz decreased by approximately 80%, compared with that of the control (FIG. 2A).
# In the case of the naphazoline-administered group, the cells treated with PBS were used as the control, and the cells treated with DMSO were used as the control in the case of the chlorhexidine- and tenofovir-administered groups. A scale bar represents 20 μm. **P<0.01 and ***P<0.001 against the control.
# A53T α-synuclein = molecular target: T2, A53T α-synuclein (Homo sapiens, UniProt P37840, A53T); experiment: Co-culture assay of A53T EGFP and A53T mcherry SH-SY5Y cells, aggregation of α-synuclein
# T2 construct: expressed in transfected cells; host or cells: SH-SY5Y (lentiviral transduction)
# Description: A degeneration process of converting monomeric α-synuclein into aggregates may mainly cause Parkinson's disease. Therefore, it was tested whether efavirenz is involved in the propagation process of the over-expressed monomeric A53T α-synuclein to adjacent cells, which is converting the over-expressed monomeric α-synuclein into aggregates.
# For this purpose, an SH-SY5Y cell line (A53T EGFP cells) in which EGFP-labeled A53T α-synuclein was over-expressed and an SH-SY5Y cell line (A53T mcherry cells) in which mcherry-labeled A53T α-synuclein was over-expressed were prepared using a lentivirus. Thereafter, the A53T EGFP cells and the A53T mcherry cells were mixed to prepare co-cultured cells. Then, the co-cultured cells were treated with DMSO or 5 μM efavirenz, and co-cultured in the presence of 50 μM retinoic acid (RA) for 5 days. The co-cultured cells treated with DMSO were used as the control. At 5 days of the co-culturing, the aggregated α-synuclein (inclusion body-positive cells) was confirmed using a confocal microscope (the rightmost image of fluorescence images shown in FIG. 3A). Also, each of a combined distribution of EGFP and mcherry in the A53T EGFP cells and a combined distribution of mcherry and EGFP in the A53T mcherry cells was confirmed. […] In the rightmost image of the fluorescence images of FIG. 3A, dots indicated in yellow represent the combining of mcherry and EGFP signals in the cells. In the rightmost image of the fluorescence images of FIG. 3A (a diagram in which EGFP+mcherry signals were combined), the dots indicated in yellow were counted to calculate ratios of the dots to the whole cells, and then plotted on a bar graph. A scale bar represents 20 μm, and ***P<0.001 against the control.
# Also, to test whether chlorhexidine, naphazoline, and tenofovir were involved in the process of moving the over-expressed monomeric A53T α-synuclein to adjacent cells to convert the over-expressed monomeric α-synuclein into aggregates, the cells were treated with either 10 μM chlorhexidine, 100 μM naphazoline, or 20 μM tenofovir, and then tested in the same manner as in the experiment for efavirenz. However, in the case of the naphazoline-administered group, the cells treated with PBS were used as the control, and the cells treated with DMSO were also used as the control in the case of the chlorhexidine- and tenofovir-administered groups. A scale bar represents 20 μm.
# SH-SY5Y cell line = experiment: Cytotoxicity, cell viability by MTT test; details: 24 hours
# Description: An SH-SY5Y cell line (ATCC) was used to confirm the cytotoxicity of efavirenz.
# The SH-SY5Y cell line was seeded in a 96-well plate, cultured, treated with an increasing concentration (0, 5, 25 μM) of efavirenz, and then incubated at a constant temperature for 24 hours. Thereafter, cell viability was measured using an MTT test method. Cells treated with 0 μM efavirenz were used as the control. **P<0.01 against the control.
# Also, in the next experiment, the cytotoxicities of chlorhexidine (N,N″″-1,6-hexanediylbis[N′-(4-chlorophenyl)(imidocarbon imidic diamide)]), naphazoline(2-(1-naphthylmethyl)-4,5-dihydro-1H-imidazole), and tenofovir (({[(2R)-1-(6-amino-9H-purin-9-yl)-[…]]oxy}methyl)phosphonic acid) to be used as reference drugs were tested in the same manner as in the cytotoxicity experiment of efavirenz. Cells were treated with chlorhexidine at a concentration of 0, 10, 100 μM, treated with naphazoline at a concentration of 0, 100, 200 μM, and treated with tenofovir at a concentration of 0, 20, 30 μM, and cells treated with each control drug at a concentration of 0 μM was used as the control. *P<0.05, ***P<0.001 against the control.
# [1] = 20 μM, 5 days co-culture, DMSO control
# [2] = 10 μM, 5 days co-culture, DMSO control
structure (smiles),measurement,setting,value
"O=C1Nc2ccc(Cl)cc2[C@@](C#CC2CC2)(C(F)(F)F)O1 [efavirenz, (4S)-6-chloro-(cyclopropylethynyl)-1,4-dihydro-4-(trifluoromethyl)-2H-3,1-benzoxazin-2-one]",decrease of fluorescence intensity of immunostained α-synuclein compared with the control,"α-synuclein; 5 μM, DMSO control",approximately 80%
"c1ccc2c(CC3=NCCN3)cccc2c1 [naphazoline, 2-(1-naphthylmethyl)-4,5-dihydro-1H-imidazole]",distribution of α-synuclein compared with the control cells,A53T α-synuclein,increased or were not significantly different
same,amount of aggregated α-synuclein compared with the control cells,"A53T α-synuclein; 100 μM, 5 days co-culture, PBS control",increased or were not significantly different
same,cell-to-cell transmission of α-synuclein compared with the control (fluorescence image),"α-synuclein; 100 μM, PBS control",remarkably increased
C[C@H](Cn1cnc2c(N)ncnc21)OCP(=O)(O)O [tenofovir],amount of aggregated α-synuclein compared with the control cells,A53T α-synuclein; [1],increased or were not significantly different
same,distribution of α-synuclein compared with the control cells,A53T α-synuclein; [1],increased or were not significantly different
same,cell viability compared with the control,SH-SY5Y cell line; 20 μM,not changed significantly
same,cell viability compared with the control,SH-SY5Y cell line; 30 μM,significant decrease
same,cell-to-cell transmission of α-synuclein compared with the control (fluorescence image),"α-synuclein; 20 μM, DMSO control",remarkably increased
"[H]/N=C(\N/C(=N/[H])NCCCCCCNC(=N)NC(=N)Nc1ccc(Cl)cc1)Nc1ccc(Cl)cc1 [chlorhexidine, N,N″″-1,6-hexanediylbis[N′-(4-chlorophenyl)(imidocarbonimidic diamide)]]",amount of aggregated α-synuclein compared with the control cells,A53T α-synuclein; [2],increased or were not significantly different
same,distribution of α-synuclein compared with the control cells,A53T α-synuclein; [2],increased or were not significantly different
same,cell-to-cell transmission of α-synuclein compared with the control (fluorescence image),"α-synuclein; 10 μM, DMSO control",remarkably increased
